Assay results reported in patent publication US11072582B2 (Epics Therapeutics, priority 2009, dated 2021).

System: adipocytes isolated from normal rat
Experiment: Lipolysis assay in isolated adipocytes (isoprenaline-induced)
Format: cell-based
Conditions: 30 μM, FIG. 1
Protocol: Animals are killed by cervical dislocation and epididymal fat pads are removed and digested in collagenase buffer at 37° C./120 rpm for approximately 50 minutes.
After the pre-treatment, Isoprenaline (1 μM) is added to the adipocytes followed by 30 min incubation at 37° C./150 rpm. The reactions are put on ice and the buffer is assayed spectrophotometrically for the production of NADH^+ from glycerol breakdown in reactions catalyzed by glycerol kinase and glycero 1-3-phosphate dehydrogenase and/or Non Esterified Fatty Acid (NEFA). Each data point is investigated in triplicates in two independent experiments.

With `Cc1ccc(-c2ccc(C(=O)N3[C@@H](c4ccccc4Cl)CC[C@H]3C(=O)O)cc2)cc1` [Compound 5] the “inhibition of isoprenaline-induced lipolysis” value was “inhibit isoprenaline-induced lipolysis”.
